{"source": "patent US12115151B2", "about": "“Method of treatment of p53 WT tumors” (Dana-Farber Cancer Institute, Inc., priority 2018, dated 2024)", "key": {"p53": {"system": "p53", "assay": "Western blot of p53 response in IMR90-p53DD cells", "type": "cell-based, human", "conditions": "IMR90 cells expressing p53DD, Nutlin-3 1 μM, 24 hours", "procedure": "(§2) Confluent cultures of cells were washed with ice-cold phosphate-buffered saline (PBS) and resuspended in EBC lysis buffer (50 mM Tris, pH 8.0, 150 mM NaCl, 0.5% NP-40, 1:10,000-mercaptoethanol, 0.5 mM EDTA) for 10 min on ice and then centrifuged. Clarified lysates were incubated overnight with antibodies and magnetic protein A/G beads (PureProteome magnetic beads, EMD Millipore). […] Quantitative western blotting was performed using the Odyssey near-infrared system (Li-Cor Biotechnology)."}, "MS-1 cells": {"system": "MS-1 cells", "assay": "XTT viability assay, MS-1 cells", "type": "cell-based", "conditions": "MS-1 (p53 mutant); 96 hours", "method": "(§1) Cell viability assays were performed using Cell Proliferation Kit II (XTT) (Roche) according to the manufacturer's instructions and BH3 profiling was described in Pallis et al. (36). Synergy testing was performed using Compusyn and Synergyfinder (28, 29)."}, "MKL-1 MCC cells": {"system": "MKL-1 MCC cells", "assay": "XTT cell viability assay and synergy testing, MKL-1 cells", "type": "cell-based", "conditions": "96 hours; for sensitivity of MKL-1 cells to MDM2 inhibitor (XTT viability): MKL-1 (p53 wild type); for Response: relative viability vs untreated; for relative viability (XTT), untreated = 1: combinations with a fixed amount of Lenalidomide (5 uM), replicate columns; for Response-rep1 / Response-rep2: Lenalidomide 0 nM", "method": "as §1\nThe XTT assay was performed to determine the relative viability (% response) normalized to untreated cells."}, "CK1α": {"target": "CK1α (Homo sapiens, UniProt P48729)", "sequence (P48729 whole entry)": "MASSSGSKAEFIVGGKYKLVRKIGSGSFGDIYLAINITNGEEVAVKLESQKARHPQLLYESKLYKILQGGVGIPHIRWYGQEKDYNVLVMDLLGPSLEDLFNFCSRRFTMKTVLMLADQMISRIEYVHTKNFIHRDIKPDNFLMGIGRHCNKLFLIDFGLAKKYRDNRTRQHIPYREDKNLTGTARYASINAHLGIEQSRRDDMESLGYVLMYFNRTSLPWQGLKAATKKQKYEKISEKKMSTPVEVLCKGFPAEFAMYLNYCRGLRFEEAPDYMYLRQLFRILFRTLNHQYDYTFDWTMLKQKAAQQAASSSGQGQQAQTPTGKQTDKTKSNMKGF", "assay": "Western blot of CK1α protein levels in MKL-1 cells", "type": "cell-based", "conditions": "IMiD 10 μM", "procedure": "as §2"}, "MKL-1 MCC xenografts": {"system": "MKL-1 MCC xenografts", "assay": "Xenograft efficacy study", "conditions": "individual animals, oral daily, HDM201 40 mg/kg and/or lenalidomide 50 mg/kg; for Tumor Volume Change, Abs Ch = T − T0: tumor volumes in mm3", "source_text": "The study was terminated when the tumor volume reached the maximum permissible size of 2000 mm3."}}, "note": "Values joined by “and” are separate entries in the source; they are usually repeats but may differ in a detail not shown here. Equal entries are not always repeated. “Also recorded” adds a separate entry of the source."}
{"smiles": "COc1ccc(C2=N[C@@H](c3ccc(Cl)cc3)[C@@H](c3ccc(Cl)cc3)N2C(=O)N2CCNC(=O)C2)c(OC(C)C)c1", "note": "[Nutlin-3]", "values": [{"measurement": "p53 response", "setting": "p53", "value": "does not elicit p53 response"}, {"measurement": "p53 response", "setting": "p53; listed as nutlin-3", "value": "did not increase p53, p-p53 and PUMA levels"}, {"measurement": "sensitivity of MS-1 cells to MDM2 inhibitor (XTT viability)", "setting": "MS-1 cells", "value": "not MS-1 cells were sensitive"}, {"measurement": "sensitivity of MKL-1 cells to MDM2 inhibitor (XTT viability)", "setting": "MKL-1 MCC cells", "value": "sensitive"}, {"measurement": "Response", "setting": "MKL-1 MCC cells; Nutlin-3 1250 nM alone", "value": "96.8309% and 82.16%"}, {"measurement": "Response", "setting": "MKL-1 MCC cells; Nutlin-3 2500 nM alone", "value": "65.56% and 72.5696%"}, {"measurement": "Response", "setting": "MKL-1 MCC cells; Nutlin-3 3750 nM alone", "value": "44.2% and 63.6648%"}, {"measurement": "Response", "setting": "MKL-1 MCC cells; Nutlin-3 4500 nM alone", "value": "41.19% and 56.8421%"}]}
{"smiles": "Nc1cccc2c1C(=O)N(C1CCC(=O)NC1=O)C2=O", "note": "(stereo not shown) [pomalidomide]", "values": [{"measurement": "CK1α protein levels", "setting": "CK1α", "value": "did not reduce CK1α protein levels; also recorded: to a lesser degree"}]}
{"smiles": "CC(C)[C@@H](CS(=O)(=O)C(C)C)N1C(=O)[C@@](C)(CC(=O)O)C[C@H](c2cccc(Cl)c2)[C@H]1c1ccc(Cl)cc1", "note": "[AMG232]", "values": [{"measurement": "sensitivity of MS-1 cells to MDM2 inhibitor (XTT viability)", "setting": "MS-1 cells", "value": "not MS-1 cells were sensitive"}, {"measurement": "sensitivity of MKL-1 cells to MDM2 inhibitor (XTT viability)", "setting": "MKL-1 MCC cells", "value": "sensitive"}]}
{"smiles": "COc1cc(C(=O)O)ccc1NC(=O)[C@@H]1N[C@@H](CC(C)(C)C)[C@](C#N)(c2ccc(Cl)cc2F)[C@H]1c1cccc(Cl)c1F", "note": "[RG7388]", "values": [{"measurement": "sensitivity of MS-1 cells to MDM2 inhibitor (XTT viability)", "setting": "MS-1 cells", "value": "not MS-1 cells were sensitive"}, {"measurement": "sensitivity of MKL-1 cells to MDM2 inhibitor (XTT viability)", "setting": "MKL-1 MCC cells", "value": "sensitive"}, {"measurement": "relative viability (XTT), untreated = 1", "setting": "MKL-1 MCC cells; Nutlin-3 or RG7388 level 25 (unit not given)", "value": "0.7819 and 0.7111 and 0.8222"}, {"measurement": "relative viability (XTT), untreated = 1", "setting": "MKL-1 MCC cells; Nutlin-3 or RG7388 level 50 (unit not given)", "value": "0.6836 and 0.5814 and 0.6885"}, {"measurement": "relative viability (XTT), untreated = 1", "setting": "MKL-1 MCC cells; Nutlin-3 or RG7388 level 75 (unit not given)", "value": "0.553 and 0.4338 and 0.5431"}, {"measurement": "relative viability (XTT), untreated = 1", "setting": "MKL-1 MCC cells; Nutlin-3 or RG7388 level 90 (unit not given)", "value": "0.4663 and 0.3695 and 0.5108"}]}
{"smiles": "COc1ncc(-c2nc3c(n2C(C)C)[C@H](c2ccc(Cl)cc2)N(c2cc(Cl)cn(C)c2=O)C3=O)c(OC)n1", "note": "[HDM201, (S)-5-(5-Chloro-1-methyl-2-oxo-1,2-dihydro-pyridin-3-yl)-6-(4-chloro-phenyl)-2-(2,4-dimethoxy-pyrimidin-5-yl)-1-isopropyl-5,6-dihydro-1H-pyrrolo[3,4-d]imidazol-4-one]", "values": [{"measurement": "Response-rep1", "setting": "MKL-1 MCC cells; HDM201 50 nM", "value": 90.76, "unit": "%"}, {"measurement": "Response-rep2", "setting": "MKL-1 MCC cells; HDM201 50 nM", "value": 92.94, "unit": "%"}, {"measurement": "Response-rep1", "setting": "MKL-1 MCC cells; HDM201 100 nM", "value": 75.8, "unit": "%"}, {"measurement": "Response-rep2", "setting": "MKL-1 MCC cells; HDM201 100 nM", "value": 77.72, "unit": "%"}, {"measurement": "Response-rep1", "setting": "MKL-1 MCC cells; HDM201 150 nM", "value": 53.3961, "unit": "%"}, {"measurement": "Response-rep2", "setting": "MKL-1 MCC cells; HDM201 150 nM", "value": 61.84, "unit": "%"}, {"measurement": "Response-rep1", "setting": "MKL-1 MCC cells; HDM201 180 nM", "value": 33.32, "unit": "%"}, {"measurement": "Response-rep2", "setting": "MKL-1 MCC cells; HDM201 180 nM", "value": 40.87, "unit": "%"}, {"measurement": "Response", "setting": "MKL-1 MCC cells; HDM201 50 nM alone", "value": 93.9107, "unit": "%"}, {"measurement": "Response", "setting": "MKL-1 MCC cells; HDM201 100 nM alone", "value": 90.5417, "unit": "%"}, {"measurement": "Response", "setting": "MKL-1 MCC cells; HDM201 150 nM alone", "value": 94.8184, "unit": "%"}, {"measurement": "Response", "setting": "MKL-1 MCC cells; HDM201 180 nM alone", "value": 87.8557, "unit": "%"}, {"measurement": "Tumor Volume Change, % Ch = (T − T0)/T0", "setting": "MKL-1 MCC xenografts; day 0", "value": 0.00, "unit": "%"}, {"measurement": "Tumor Volume Change, Abs Ch = T − T0", "setting": "MKL-1 MCC xenografts; day 0", "value": 0.00}, {"measurement": "Tumor Volume Change, % Ch = (T − T0)/T0", "setting": "MKL-1 MCC xenografts; day 4", "value": "168.68% and 25.53% and 16.64% and 93.53% and 6.55% and 29.08% and 14.67% and 11.44%"}, {"measurement": "Tumor Volume Change, Abs Ch = T − T0", "setting": "MKL-1 MCC xenografts; day 4", "value": "302.89 and 66.12 and 32.34 and 133.99 and 10.51 and 44.16 and 21.14 and 14.26"}, {"measurement": "Tumor Volume Change, % Ch = (T − T0)/T0", "setting": "MKL-1 MCC xenografts; day 7", "value": "392.40% and 107.65% and 56.29% and 123.49% and 37.00% and 27.47% and 30.43% and 28.15%"}, {"measurement": "Tumor Volume Change, Abs Ch = T − T0", "setting": "MKL-1 MCC xenografts; day 7", "value": "704.61 and 278.82 and 109.40 and 176.91 and 59.41 and 41.71 and 43.86 and 35.09"}, {"measurement": "Tumor Volume Change, % Ch = (T − T0)/T0", "setting": "MKL-1 MCC xenografts; day 11", "value": "465.37% and 122.53% and 125.88% and 248.58% and 101.24% and 14.09% and 37.76% and 61.17%"}, {"measurement": "Tumor Volume Change, Abs Ch = T − T0", "setting": "MKL-1 MCC xenografts; day 11", "value": "835.64 and 317.36 and 244.65 and 356.12 and 162.53 and 21.39 and 54.43 and 76.25"}, {"measurement": "Tumor Volume Change, % Ch = (T − T0)/T0", "setting": "MKL-1 MCC xenografts; day 14", "value": "597.67% and 128.4% and 191.55% and 295.64% and 94.41% and 41.69% and 77.45% and 56.59%"}, {"measurement": "Tumor Volume Change, Abs Ch = T − T0", "setting": "MKL-1 MCC xenografts; day 14", "value": "1073.19 and 332.66 and 372.29 and 423.53 and 151.58 and 63.30 and 111.64 and 70.55"}, {"measurement": "Tumor Volume Change, % Ch = (T − T0)/T0", "setting": "MKL-1 MCC xenografts; day 18", "value": "741.47% and 4165.70% and 234.58% and 350.27% and 114.06% and 20.72% and 81.45% and 83.83%"}, {"measurement": "Tumor Volume Change, Abs Ch = T − T0", "setting": "MKL-1 MCC xenografts; day 18", "value": "1331.39 and 429.17 and 455.90 and 501.79 and 183.12 and 31.46 and 117.41 and 104.49"}]}
{"smiles": "O=C1CCC(N2C(=O)c3ccccc3C2=O)C(=O)N1", "note": "(stereo not shown) [thalidomide]", "values": [{"measurement": "CK1α protein levels", "setting": "CK1α", "value": "did not reduce CK1α protein levels; also recorded: not thalidomide"}]}
{"smiles": "CNc1ncc(-n2nc(N)c3cc(F)c(-c4ccc(O)c5ccccc45)cc32)c(Cl)c1C", "note": "[SC-24-UR99, 4-(3-amino-1-(4-chloro-5-methyl-6-(methylamino)pyridin-3-yl)-5-fluoro-1H-indazol-6-yl)naphthalen-1-ol]", "values": [{"measurement": "Response", "setting": "MKL-1 MCC cells; SC-24-UR99 50 nM alone", "value": "103.6933% and 100.5561%"}, {"measurement": "Response", "setting": "MKL-1 MCC cells; SC-24-UR99 100 nM alone", "value": "99.5168% and 105.263%"}, {"measurement": "Response", "setting": "MKL-1 MCC cells; SC-24-UR99 150 nM alone", "value": "99.3633% and 93.4308%"}, {"measurement": "Response", "setting": "MKL-1 MCC cells; SC-24-UR99 180 nM alone", "value": "92.5016% and 89.8385%"}]}
